Test results from article PMC4767141, “Discovery of Potent, Orally Bioavailable, Small-Molecule Inhibitors of WNT Signaling from a Cell-Based Pathway Screen” (Journal of Medicinal Chemistry, 2015).

Key:
α1 (non-selective) = assay: CEREP binding panel; conditions: 10 μM, antagonist radioligand
ETA (h) = target: T1, ETA (h) (Homo sapiens, UniProt P25101); assay: CEREP binding panel; conditions: agonist radioligand, read-out: % Inhibition of Control Specific Binding
T1 construct: purchased Millipore KinaseProfiler (kinases); Cerep (receptors and ion channels)

GAL2 (h) = target: T2, GAL2 (h) (Homo sapiens, UniProt O43603); assay: CEREP binding panel; conditions: agonist radioligand, read-out: % Inhibition of Control Specific Binding
T2 construct: purchased Millipore KinaseProfiler (kinases); Cerep (receptors and ion channels)

H1 (h) = target: T3, H1 (h) (Homo sapiens, UniProt P35367); assay: CEREP binding panel; conditions: antagonist radioligand, read-out: % Inhibition of Control Specific Binding
T3 construct: purchased Millipore KinaseProfiler (kinases); Cerep (receptors and ion channels)

H2 (h) = target: T4, H2 (h) (Homo sapiens, UniProt P25021); assay: CEREP binding panel; conditions: antagonist radioligand, read-out: % Inhibition of Control Specific Binding
T4 construct: purchased Millipore KinaseProfiler (kinases); Cerep (receptors and ion channels)

NK3 (h) = target: T5, NK3 (h) (Homo sapiens, UniProt P29371); assay: CEREP binding panel; conditions: antagonist radioligand, read-out: % Inhibition of Control Specific Binding
T5 construct: purchased Millipore KinaseProfiler (kinases); Cerep (receptors and ion channels)

κ (KOP) = target: T6, κ (KOP) (Rattus norvegicus, UniProt P34975); assay: CEREP binding panel; conditions: agonist radioligand, read-out: % Inhibition of Control Specific Binding
T6 construct: purchased Millipore KinaseProfiler (kinases); Cerep (receptors and ion channels)
T6 sequence (P34975 whole entry): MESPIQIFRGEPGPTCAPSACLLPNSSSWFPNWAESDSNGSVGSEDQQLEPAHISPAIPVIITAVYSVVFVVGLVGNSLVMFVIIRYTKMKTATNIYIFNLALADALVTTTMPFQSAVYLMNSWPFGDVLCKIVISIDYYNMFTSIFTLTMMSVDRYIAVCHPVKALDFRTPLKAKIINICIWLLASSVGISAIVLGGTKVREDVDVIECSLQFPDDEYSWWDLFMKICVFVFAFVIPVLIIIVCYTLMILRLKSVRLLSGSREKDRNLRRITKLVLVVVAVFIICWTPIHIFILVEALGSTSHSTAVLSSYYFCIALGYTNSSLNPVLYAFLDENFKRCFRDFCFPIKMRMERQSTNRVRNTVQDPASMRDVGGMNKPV

5-HT1A (h) = target: T7, 5-HT1A (h) (Homo sapiens, UniProt P08908); assay: CEREP binding panel; conditions: agonist radioligand, read-out: % Inhibition of Control Specific Binding
T7 construct: purchased Millipore KinaseProfiler (kinases); Cerep (receptors and ion channels)

5-HT7 (h) = target: T8, 5-HT7 (h) (Homo sapiens, UniProt P34969); assay: CEREP binding panel; conditions: agonist radioligand, read-out: % Inhibition of Control Specific Binding
T8 construct: purchased Millipore KinaseProfiler (kinases); Cerep (receptors and ion channels)
T8 sequence (P34969 whole entry): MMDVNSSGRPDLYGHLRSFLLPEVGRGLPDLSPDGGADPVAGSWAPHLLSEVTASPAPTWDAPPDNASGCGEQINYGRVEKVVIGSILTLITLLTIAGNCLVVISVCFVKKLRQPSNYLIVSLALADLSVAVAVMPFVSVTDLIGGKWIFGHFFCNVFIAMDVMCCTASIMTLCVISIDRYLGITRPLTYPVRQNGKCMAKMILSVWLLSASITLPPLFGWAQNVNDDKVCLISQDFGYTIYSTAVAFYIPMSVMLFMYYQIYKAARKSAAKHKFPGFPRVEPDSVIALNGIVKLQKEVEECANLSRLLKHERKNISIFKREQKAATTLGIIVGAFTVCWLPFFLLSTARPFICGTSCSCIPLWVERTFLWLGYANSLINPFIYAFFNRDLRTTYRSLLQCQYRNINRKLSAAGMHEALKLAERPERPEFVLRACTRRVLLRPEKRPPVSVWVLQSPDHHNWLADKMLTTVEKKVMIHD

BLK = assay: Millipore kinase panel; type: biochemical; conditions: 1 μM, ATP at Km
CAMKI = target: T9, CAMKI (Homo sapiens, UniProt Q14012); assay: Millipore kinase panel; type: biochemical; conditions: read-out: % Control
T9 construct: purchased Millipore KinaseProfiler (kinases); Cerep (receptors and ion channels)

CDK5/P25 = target: T10, CDK5/P25 (Homo sapiens, UniProt Q00535); assay: Millipore kinase panel; type: biochemical; conditions: read-out: % Control
T10 construct: purchased Millipore KinaseProfiler (kinases); Cerep (receptors and ion channels)

CDK6/CYCLIND3 = target: T11, CDK6/CYCLIND3 (Homo sapiens, UniProt Q00534); assay: Millipore kinase panel; type: biochemical; conditions: read-out: % Control
T11 construct: purchased Millipore KinaseProfiler (kinases); Cerep (receptors and ion channels)

CDK7/CYCLINH/MAT1 = target: T12, CDK7/CYCLINH/MAT1 (Homo sapiens, UniProt P50613); assay: Millipore kinase panel; type: biochemical; conditions: read-out: % Control
T12 construct: purchased Millipore KinaseProfiler (kinases); Cerep (receptors and ion channels)

DMPK = target: T13, DMPK (Homo sapiens, UniProt Q09013); assay: Millipore kinase panel; type: biochemical; conditions: read-out: % Control
T13 construct: purchased Millipore KinaseProfiler (kinases); Cerep (receptors and ion channels)

DYRK2 = target: T14, DYRK2 (Homo sapiens, UniProt Q92630); assay: Millipore kinase panel; type: biochemical; conditions: read-out: % Control
T14 construct: purchased Millipore KinaseProfiler (kinases); Cerep (receptors and ion channels)

EPHA1 = target: T15, EPHA1 (Homo sapiens, UniProt P21709); assay: Millipore kinase panel; type: biochemical; conditions: read-out: % Control
T15 construct: purchased Millipore KinaseProfiler (kinases); Cerep (receptors and ion channels)

EPHA2 = target: T16, EPHA2 (Homo sapiens, UniProt P29317); assay: Millipore kinase panel; type: biochemical; conditions: read-out: % Control
T16 construct: purchased Millipore KinaseProfiler (kinases); Cerep (receptors and ion channels)

EPHB3 = target: T17, EPHB3 (Homo sapiens, UniProt P54753); assay: Millipore kinase panel; type: biochemical; conditions: read-out: % Control
T17 construct: purchased Millipore KinaseProfiler (kinases); Cerep (receptors and ion channels)

FGFR1 = target: T18, FGFR1 (Homo sapiens, UniProt P11362); assay: Millipore kinase panel; type: biochemical; conditions: read-out: % Control
T18 construct: purchased Millipore KinaseProfiler (kinases); Cerep (receptors and ion channels)

FGR = target: T19, FGR (Homo sapiens, UniProt P09769); assay: Millipore kinase panel; type: biochemical; conditions: read-out: % Control
T19 construct: purchased Millipore KinaseProfiler (kinases); Cerep (receptors and ion channels)

FLT1 = target: T20, FLT1 (Homo sapiens, UniProt P17948); assay: Millipore kinase panel; type: biochemical; conditions: read-out: % Control
T20 construct: purchased Millipore KinaseProfiler (kinases); Cerep (receptors and ion channels)

HIPK1 = target: T21, HIPK1 (Homo sapiens, UniProt Q86Z02); assay: Millipore kinase panel; type: biochemical; conditions: read-out: % Control
T21 construct: purchased Millipore KinaseProfiler (kinases); Cerep (receptors and ion channels)

IRAK4 = target: T22, IRAK4 (Homo sapiens, UniProt Q9NWZ3); assay: Millipore kinase panel; type: biochemical; conditions: read-out: % Control
T22 construct: purchased Millipore KinaseProfiler (kinases); Cerep (receptors and ion channels)

JNK1ALPHA1 = target: T23, JNK1ALPHA1 (Homo sapiens, UniProt P45983); assay: Millipore kinase panel; type: biochemical; conditions: read-out: % Control
T23 construct: purchased Millipore KinaseProfiler (kinases); Cerep (receptors and ion channels)
T23 sequence (P45983 1-384 isoform P45983-2): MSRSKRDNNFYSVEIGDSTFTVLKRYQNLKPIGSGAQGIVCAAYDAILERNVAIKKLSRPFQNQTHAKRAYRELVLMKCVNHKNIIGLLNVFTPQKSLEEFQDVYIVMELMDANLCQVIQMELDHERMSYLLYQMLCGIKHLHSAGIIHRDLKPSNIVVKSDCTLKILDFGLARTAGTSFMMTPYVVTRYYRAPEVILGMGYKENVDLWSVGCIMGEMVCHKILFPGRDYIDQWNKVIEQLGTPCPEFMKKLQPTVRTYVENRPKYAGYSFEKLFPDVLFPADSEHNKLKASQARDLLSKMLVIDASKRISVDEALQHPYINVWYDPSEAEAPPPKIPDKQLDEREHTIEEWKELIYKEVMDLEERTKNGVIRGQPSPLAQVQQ

CKIT = target: T24, CKIT (Homo sapiens, UniProt P10721); assay: Millipore kinase panel; type: biochemical; conditions: read-out: % Control
T24 construct: purchased Millipore KinaseProfiler (kinases); Cerep (receptors and ion channels)

LOK = target: T25, LOK (Homo sapiens, UniProt O94804); assay: Millipore kinase panel; type: biochemical; conditions: read-out: % Control
T25 construct: purchased Millipore KinaseProfiler (kinases); Cerep (receptors and ion channels)

MLCK = target: T26, MLCK (Homo sapiens, UniProt Q9H1R3); assay: Millipore kinase panel; type: biochemical; conditions: read-out: % Control
T26 construct: purchased Millipore KinaseProfiler (kinases); Cerep (receptors and ion channels)

MLK1 = target: T27, MLK1 (Homo sapiens, UniProt P80192); assay: Millipore kinase panel; type: biochemical; conditions: read-out: % Control
T27 construct: purchased Millipore KinaseProfiler (kinases); Cerep (receptors and ion channels)

MRCKBETA = target: T28, MRCKBETA (Homo sapiens, UniProt Q9Y5S2); assay: Millipore kinase panel; type: biochemical; conditions: read-out: % Control
T28 construct: purchased Millipore KinaseProfiler (kinases); Cerep (receptors and ion channels)

MSK1 = target: T29, MSK1 (Homo sapiens, UniProt O75582); assay: Millipore kinase panel; type: biochemical; conditions: read-out: % Control
T29 construct: purchased Millipore KinaseProfiler (kinases); Cerep (receptors and ion channels)
T29 sequence (O75582 whole entry): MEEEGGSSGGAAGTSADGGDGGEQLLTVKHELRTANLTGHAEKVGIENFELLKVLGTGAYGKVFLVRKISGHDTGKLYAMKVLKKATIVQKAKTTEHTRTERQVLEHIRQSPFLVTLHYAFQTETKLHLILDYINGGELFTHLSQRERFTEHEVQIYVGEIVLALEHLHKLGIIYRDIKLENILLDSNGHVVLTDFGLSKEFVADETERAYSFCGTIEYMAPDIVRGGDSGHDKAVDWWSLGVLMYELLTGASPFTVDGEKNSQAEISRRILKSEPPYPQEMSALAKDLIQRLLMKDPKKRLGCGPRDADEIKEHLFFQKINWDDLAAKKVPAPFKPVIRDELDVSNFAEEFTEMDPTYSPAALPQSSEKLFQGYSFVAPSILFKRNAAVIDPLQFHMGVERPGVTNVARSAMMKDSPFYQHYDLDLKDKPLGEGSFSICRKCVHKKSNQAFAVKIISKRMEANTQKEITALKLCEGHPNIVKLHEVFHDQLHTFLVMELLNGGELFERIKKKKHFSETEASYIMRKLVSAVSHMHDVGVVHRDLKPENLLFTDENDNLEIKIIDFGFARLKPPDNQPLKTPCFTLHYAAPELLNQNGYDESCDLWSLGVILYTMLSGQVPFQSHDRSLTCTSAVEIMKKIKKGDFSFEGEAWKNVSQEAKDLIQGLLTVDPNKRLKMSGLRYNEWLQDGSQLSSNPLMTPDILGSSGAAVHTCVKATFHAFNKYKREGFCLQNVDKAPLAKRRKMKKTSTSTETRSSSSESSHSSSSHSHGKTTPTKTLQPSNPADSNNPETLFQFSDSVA

MUSK = target: T30, MUSK (Homo sapiens, UniProt O15146); assay: Millipore kinase panel; type: biochemical; conditions: read-out: % Control
T30 construct: purchased Millipore KinaseProfiler (kinases); Cerep (receptors and ion channels)

PAK4 = target: T31, PAK4 (Homo sapiens, UniProt O96013); assay: Millipore kinase panel; type: biochemical; conditions: read-out: % Control
T31 construct: purchased Millipore KinaseProfiler (kinases); Cerep (receptors and ion channels)
T31 sequence (O96013 whole entry): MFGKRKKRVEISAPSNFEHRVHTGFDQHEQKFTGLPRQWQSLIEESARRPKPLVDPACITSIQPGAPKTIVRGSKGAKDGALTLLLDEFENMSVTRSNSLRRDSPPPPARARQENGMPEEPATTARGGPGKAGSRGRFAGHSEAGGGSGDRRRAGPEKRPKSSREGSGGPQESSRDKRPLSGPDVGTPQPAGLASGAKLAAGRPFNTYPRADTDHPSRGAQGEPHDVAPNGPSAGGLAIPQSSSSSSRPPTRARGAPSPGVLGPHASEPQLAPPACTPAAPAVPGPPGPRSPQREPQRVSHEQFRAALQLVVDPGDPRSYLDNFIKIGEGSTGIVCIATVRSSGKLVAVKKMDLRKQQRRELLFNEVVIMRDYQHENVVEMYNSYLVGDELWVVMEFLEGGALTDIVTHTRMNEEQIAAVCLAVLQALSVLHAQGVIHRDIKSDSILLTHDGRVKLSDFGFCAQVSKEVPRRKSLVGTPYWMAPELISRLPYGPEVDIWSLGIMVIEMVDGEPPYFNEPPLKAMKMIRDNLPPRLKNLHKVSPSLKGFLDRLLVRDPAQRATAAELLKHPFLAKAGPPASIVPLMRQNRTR

PDGFRALPHA = target: T32, PDGFRALPHA (Homo sapiens, UniProt P16234); assay: Millipore kinase panel; type: biochemical; conditions: read-out: % Control
T32 construct: purchased Millipore KinaseProfiler (kinases); Cerep (receptors and ion channels)

RON = target: T33, RON (Homo sapiens, UniProt Q04912); assay: Millipore kinase panel; type: biochemical; conditions: read-out: % Control
T33 construct: purchased Millipore KinaseProfiler (kinases); Cerep (receptors and ion channels)

SAPK2A = target: T34, SAPK2A (Homo sapiens, UniProt Q16539); assay: Millipore kinase panel; type: biochemical; conditions: read-out: % Control
T34 construct: purchased Millipore KinaseProfiler (kinases); Cerep (receptors and ion channels)
T34 sequence (Q16539 whole entry): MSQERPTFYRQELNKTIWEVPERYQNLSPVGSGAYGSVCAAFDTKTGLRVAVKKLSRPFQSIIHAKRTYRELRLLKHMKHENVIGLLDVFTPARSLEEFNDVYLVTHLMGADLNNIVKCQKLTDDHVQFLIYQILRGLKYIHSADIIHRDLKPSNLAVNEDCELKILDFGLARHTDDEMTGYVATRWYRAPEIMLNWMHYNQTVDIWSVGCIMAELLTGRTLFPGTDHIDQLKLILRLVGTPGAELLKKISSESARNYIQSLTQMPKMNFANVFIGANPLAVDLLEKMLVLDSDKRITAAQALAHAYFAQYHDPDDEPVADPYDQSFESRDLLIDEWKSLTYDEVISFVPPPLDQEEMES

SAPK3 = target: T35, SAPK3 (Homo sapiens, UniProt P53778); assay: Millipore kinase panel; type: biochemical; conditions: read-out: % Control
T35 construct: purchased Millipore KinaseProfiler (kinases); Cerep (receptors and ion channels)
T35 sequence (P53778 whole entry): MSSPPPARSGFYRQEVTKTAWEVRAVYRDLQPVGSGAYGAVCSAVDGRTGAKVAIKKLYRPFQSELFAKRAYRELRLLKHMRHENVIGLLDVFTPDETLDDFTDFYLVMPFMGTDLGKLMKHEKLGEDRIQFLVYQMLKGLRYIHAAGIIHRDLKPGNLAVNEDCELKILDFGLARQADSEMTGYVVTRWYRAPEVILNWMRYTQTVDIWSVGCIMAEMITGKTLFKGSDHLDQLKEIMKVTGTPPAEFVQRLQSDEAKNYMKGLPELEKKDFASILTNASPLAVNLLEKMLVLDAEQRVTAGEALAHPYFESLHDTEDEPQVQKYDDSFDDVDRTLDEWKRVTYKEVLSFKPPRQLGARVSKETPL

SNK = target: T36, SNK (Homo sapiens, UniProt Q9NYY3); assay: Millipore kinase panel; type: biochemical; conditions: read-out: % Control
T36 construct: purchased Millipore KinaseProfiler (kinases); Cerep (receptors and ion channels)

SRPK1 = target: T37, SRPK1 (Homo sapiens, UniProt Q96SB4); assay: Millipore kinase panel; type: biochemical; conditions: read-out: % Control
T37 construct: purchased Millipore KinaseProfiler (kinases); Cerep (receptors and ion channels)

ZAP-70 = target: T38, ZAP-70 (Homo sapiens, UniProt P43403); assay: Millipore kinase panel; type: biochemical; conditions: read-out: % Control
T38 construct: purchased Millipore KinaseProfiler (kinases); Cerep (receptors and ion channels)

GRK6 = target: T39, GRK6 (Homo sapiens, UniProt P43250); assay: Millipore kinase panel; type: biochemical; conditions: read-out: % Control
T39 construct: purchased Millipore KinaseProfiler (kinases); Cerep (receptors and ion channels)
T39 sequence (P43250 whole entry): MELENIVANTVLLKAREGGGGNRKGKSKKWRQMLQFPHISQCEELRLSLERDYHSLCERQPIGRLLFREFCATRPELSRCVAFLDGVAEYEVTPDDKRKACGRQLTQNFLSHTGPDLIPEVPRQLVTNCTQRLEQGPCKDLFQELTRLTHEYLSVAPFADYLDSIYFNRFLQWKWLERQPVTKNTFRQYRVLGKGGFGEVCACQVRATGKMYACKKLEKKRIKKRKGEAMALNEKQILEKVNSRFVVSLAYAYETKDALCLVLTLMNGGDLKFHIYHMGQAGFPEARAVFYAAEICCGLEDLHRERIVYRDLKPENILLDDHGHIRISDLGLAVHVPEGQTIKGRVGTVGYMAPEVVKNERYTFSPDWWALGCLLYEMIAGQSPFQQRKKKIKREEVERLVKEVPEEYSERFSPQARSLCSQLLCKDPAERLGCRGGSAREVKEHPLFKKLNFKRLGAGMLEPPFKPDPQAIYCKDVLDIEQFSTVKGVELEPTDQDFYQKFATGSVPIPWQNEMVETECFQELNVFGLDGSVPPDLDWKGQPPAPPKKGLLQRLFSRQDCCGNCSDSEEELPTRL

FAK = target: T40, FAK (Homo sapiens, UniProt Q05397); assay: Millipore kinase panel; type: biochemical; conditions: read-out: % Control
T40 construct: purchased Millipore KinaseProfiler (kinases); Cerep (receptors and ion channels)
T40 sequence (Q05397 whole entry): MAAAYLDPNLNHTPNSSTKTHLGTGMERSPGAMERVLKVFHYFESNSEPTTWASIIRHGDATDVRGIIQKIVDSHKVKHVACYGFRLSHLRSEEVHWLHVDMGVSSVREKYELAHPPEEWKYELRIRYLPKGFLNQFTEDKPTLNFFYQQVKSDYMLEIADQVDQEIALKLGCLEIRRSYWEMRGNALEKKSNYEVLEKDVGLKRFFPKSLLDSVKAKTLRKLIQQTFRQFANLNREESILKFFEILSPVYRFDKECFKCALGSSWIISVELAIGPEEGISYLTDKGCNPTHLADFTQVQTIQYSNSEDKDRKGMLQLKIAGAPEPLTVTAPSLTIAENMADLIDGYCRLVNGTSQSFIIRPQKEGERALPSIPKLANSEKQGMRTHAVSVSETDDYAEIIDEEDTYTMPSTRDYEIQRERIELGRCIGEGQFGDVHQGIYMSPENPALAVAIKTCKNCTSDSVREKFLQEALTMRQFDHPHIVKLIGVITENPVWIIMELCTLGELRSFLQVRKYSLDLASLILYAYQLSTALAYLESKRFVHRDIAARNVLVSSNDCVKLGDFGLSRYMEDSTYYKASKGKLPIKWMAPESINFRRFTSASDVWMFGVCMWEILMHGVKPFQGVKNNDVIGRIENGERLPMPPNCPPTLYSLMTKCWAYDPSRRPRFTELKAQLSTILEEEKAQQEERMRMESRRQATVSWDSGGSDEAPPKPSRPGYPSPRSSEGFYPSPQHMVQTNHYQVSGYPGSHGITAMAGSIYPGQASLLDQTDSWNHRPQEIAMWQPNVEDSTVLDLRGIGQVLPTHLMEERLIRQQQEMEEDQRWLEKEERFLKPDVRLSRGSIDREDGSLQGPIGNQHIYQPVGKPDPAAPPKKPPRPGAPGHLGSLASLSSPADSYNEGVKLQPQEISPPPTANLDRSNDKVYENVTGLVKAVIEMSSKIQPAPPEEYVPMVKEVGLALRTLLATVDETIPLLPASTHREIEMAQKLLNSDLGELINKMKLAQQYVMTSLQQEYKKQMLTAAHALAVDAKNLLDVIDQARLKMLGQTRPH

VRK2 = target: T41, VRK2 (Homo sapiens, UniProt Q86Y07); assay: Millipore kinase panel; type: biochemical; conditions: read-out: % Control
T41 construct: purchased Millipore KinaseProfiler (kinases); Cerep (receptors and ion channels)

TEC ACTIVATED = target: T42, TEC ACTIVATED (Homo sapiens, UniProt P42680); assay: Millipore kinase panel; type: biochemical; conditions: read-out: % Control
T42 construct: purchased Millipore KinaseProfiler (kinases); Cerep (receptors and ion channels)

In the case of O=C1NCCC12CCN(c1c(Cl)cncc1-c1ccc(N3CCOCC3)cc1)CC2 [Compound 44, 8-(3-Chloro-5-(4-morpholin-4-ylphenyl)pyridin-4-yl)-2,8-diazaspiro[4.5]decan-1-one], the “% Inhibition of Control Specific Binding” value (α1 (non-selective)) was -4%, the inhibition at 10 µM (ETA (h)) was -3% and the inhibition at 10 µM (GAL2 (h)) was -22%. It also gave an inhibition at 10 µM (H1 (h)) of -5%, an inhibition at 10 µM (H2 (h)) of -16% and an inhibition at 10 µM (NK3 (h)) of 5%. For the same compound, the inhibition at 10 µM (κ (KOP)) was 42%, the inhibition at 10 µM (5-HT1A (h)) was 11% and the inhibition at 10 µM (5-HT7 (h)) was 9%. For the same compound, the “% Control” value (BLK) was 16%, the remaining activity at 1 µM (CAMKI) was -4% and the remaining activity at 1 µM (CDK5/P25) was 0%. For the same compound, the remaining activity at 1 µM (CDK6/CYCLIND3) was 7%, the remaining activity at 1 µM (CDK7/CYCLINH/MAT1) was -10% and the remaining activity at 1 µM (DMPK) was -7%. It also gave a remaining activity at 1 µM (DYRK2) of 9%, a remaining activity at 1 µM (EPHA1) of -2% and a remaining activity at 1 µM (EPHA2) of 10%. The remaining activity at 1 µM (EPHB3) was 17%, the remaining activity at 1 µM (FGFR1) was 13% and the remaining activity at 1 µM (FGR) was 16%. For the same compound, the remaining activity at 1 µM (FLT1) was 10%, the remaining activity at 1 µM (HIPK1) was 7% and the remaining activity at 1 µM (IRAK4) was 2%. For the same compound, the remaining activity at 1 µM (JNK1ALPHA1) was 0%, the remaining activity at 1 µM (CKIT) was 12% and the remaining activity at 1 µM (LOK) was -1%. For the same compound, the remaining activity at 1 µM (MLCK) was 1%, the remaining activity at 1 µM (MLK1) was 1% and the remaining activity at 1 µM (MRCKBETA) was 4%. It also gave a remaining activity at 1 µM (MSK1) of 18%, a remaining activity at 1 µM (MUSK) of 10% and a remaining activity at 1 µM (PAK4) of -2%. It also gave a remaining activity at 1 µM (PDGFRALPHA) of 2%, a remaining activity at 1 µM (RON) of 13% and a remaining activity at 1 µM (SAPK2A) of -1%. The remaining activity at 1 µM (SAPK3) was 35%, the remaining activity at 1 µM (SNK) was -5% and the remaining activity at 1 µM (SRPK1) was -20%. The remaining activity at 1 µM (ZAP-70) was 13%, the remaining activity at 1 µM (GRK6) was -1% and the remaining activity at 1 µM (FAK) was -14%. The remaining activity at 1 µM (VRK2) was -5% and the remaining activity at 1 µM (TEC ACTIVATED) was 4%.
